Source: PMC2918654 (Bioorganic & medicinal chemistry, 2010)
Like-named read-outs stand apart in the source and are kept apart here. Where a SMILES comes first, the peptide text is derived from it. [ ]: non-standard residue; d: D form. The star is where a group is joined. Dmt = Cc1cc(O)cc(C)c1C[C@H](N)C(=O)O; Tic = O=C(O)[C@@H]1Cc2ccccc2CN1; NHBn = c1ccc(CN*)cc1

Legend:
μ-opioid receptors = μ-opioid receptors (Rattus norvegicus, UniProt P33535); assay: Competitive binding assay, μ-opioid receptors, [3H]DAMGO; set-up: species or system Sprague-Dawley rats
δ-opioid receptors [1] = target: T1, δ-opioid receptors (Rattus norvegicus, UniProt P33533); assay: Competitive binding assay, δ-opioid receptors, [3H]deltorphin II; set-up: species or system Sprague-Dawley rats; settings: for selectivity Ki^μ/Ki^δ: ratio of binding Ki values
μ-opioid receptor [2] = target: T2, μ-opioid receptor (Cavia porcellus, UniProt P97266); assay: Electrically stimulated guinea-pig ileum; type: cell-based, guinea pigs
δ opioid receptor = settings: read-out: δ agonist IC50; cited from earlier work
μ-opioid receptor [3] = target: T2, μ-opioid receptor; settings: μ antagonism, cited from earlier work
δ-opioid receptor [4] = target: T3, δ-opioid receptor (Mus musculus, UniProt P32300); settings: δ antagonism, cited from earlier work
[5] = about 2 units lower than Tyr; cited from earlier work
δ-opioid receptor [6] = target: T3, δ-opioid receptor; assay: Electrically stimulated mouse vas deferens; type: cell-based
δ-opioid receptors [7] = target: T1, δ-opioid receptors; settings: ref Balboni et al.[14]; cited from earlier work

T1 sequence (P33533 whole entry): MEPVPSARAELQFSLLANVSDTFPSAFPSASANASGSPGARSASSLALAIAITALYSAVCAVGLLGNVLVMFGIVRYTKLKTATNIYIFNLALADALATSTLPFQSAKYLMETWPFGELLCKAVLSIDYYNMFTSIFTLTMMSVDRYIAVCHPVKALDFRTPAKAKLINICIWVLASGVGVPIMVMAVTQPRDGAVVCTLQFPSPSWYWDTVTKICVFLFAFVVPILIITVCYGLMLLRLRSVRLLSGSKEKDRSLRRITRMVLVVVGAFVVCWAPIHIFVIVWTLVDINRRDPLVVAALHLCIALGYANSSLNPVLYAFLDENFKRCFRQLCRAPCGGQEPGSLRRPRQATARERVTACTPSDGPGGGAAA
Chain of μ-opioid receptors (P33535 whole entry): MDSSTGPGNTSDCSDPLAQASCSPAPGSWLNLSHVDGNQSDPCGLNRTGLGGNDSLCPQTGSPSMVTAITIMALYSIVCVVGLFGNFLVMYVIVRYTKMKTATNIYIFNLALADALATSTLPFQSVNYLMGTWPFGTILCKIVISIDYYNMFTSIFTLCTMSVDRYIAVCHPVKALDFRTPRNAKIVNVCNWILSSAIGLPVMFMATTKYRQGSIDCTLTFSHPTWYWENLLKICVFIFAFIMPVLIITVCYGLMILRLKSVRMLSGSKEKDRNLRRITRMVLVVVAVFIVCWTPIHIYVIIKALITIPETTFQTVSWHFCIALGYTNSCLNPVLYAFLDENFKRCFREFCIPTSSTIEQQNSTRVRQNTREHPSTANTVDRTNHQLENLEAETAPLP
T3 sequence (P32300 whole entry): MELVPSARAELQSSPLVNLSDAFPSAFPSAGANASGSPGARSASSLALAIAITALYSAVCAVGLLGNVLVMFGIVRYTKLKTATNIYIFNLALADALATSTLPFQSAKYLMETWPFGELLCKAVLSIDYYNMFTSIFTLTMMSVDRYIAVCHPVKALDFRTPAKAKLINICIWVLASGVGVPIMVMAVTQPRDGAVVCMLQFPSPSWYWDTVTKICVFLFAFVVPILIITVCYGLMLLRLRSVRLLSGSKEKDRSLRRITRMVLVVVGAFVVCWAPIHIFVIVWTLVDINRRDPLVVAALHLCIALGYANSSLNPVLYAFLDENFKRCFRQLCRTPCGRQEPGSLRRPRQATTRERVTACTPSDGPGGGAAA
T2 sequence (P97266 whole entry, looked up): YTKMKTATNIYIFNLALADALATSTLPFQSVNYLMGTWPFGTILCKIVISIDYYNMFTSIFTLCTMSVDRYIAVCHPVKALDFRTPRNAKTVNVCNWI

NCCCC[C@H](NC(=O)[C@@H]1Cc2ccccc2CN1C(=O)[C@@H](N)Cc1ccc(O)cc1)C(=O)NCc1ccccc1 [Compound 12, H-Tyr-Tic-Lys-NH-Bzl] (H-Tyr-[Tic]-Lys-NHBn)
Ki (μ-opioid receptors): 1650 ± 231 nM
Ki (δ-opioid receptors [1]): 63.9 ± 7.6 nM
selectivity Ki^μ/Ki^δ (δ-opioid receptors [1]): 26

NCCCC[C@H](NC(=O)[C@@H]1Cc2ccccc2CN1C(=O)[C@@H](N)Cc1c(F)cc(O)cc1F)C(=O)NCc1ccccc1 [Compound 11, H-Dft-Tic-Lys-NH-Bzl]
Ki (μ-opioid receptors): 1030 ± 83 nM
Ki (δ-opioid receptors [1]): 153 ± 21 nM
selectivity Ki^μ/Ki^δ (δ-opioid receptors [1]): 7

CC(C)[C@H](NC(=O)[C@H](CCC(=O)O)NC(=O)[C@H](Cc1ccccc1)NC(=O)[C@@H](C)NC(=O)[C@@H](N)Cc1ccc(O)cc1)C(=O)N[C@H](C(=O)NCC(N)=O)C(C)C [Compound 9, H-Tyr-D-Ala-Phe-Glu-Val-Val-Gly-NH2, reference compound]
IC50 (μ-opioid receptor [2]): > 10000 nM

H-Bcp-Tic-Phe-Phe-OH
IC50 (δ opioid receptor): 3.42 nM

Cc1cc(O)cc(C)c1C[C@@H](C(=O)N1Cc2ccccc2C[C@H]1C(N)=O)N(C)C [Compound 16, N,N(Me)2-Dmt-Tic-NH2]
functional bioactivity GPI pA2 (μ-opioid receptor [3]; ref Salvadori et al.[15]): 6.3
functional bioactivity MVD pA2 (δ-opioid receptor [4]; ref Salvadori et al.[15]): 9.9

N[C@@H](Cc1c(F)cc(O)cc1F)C(=O)O [Dft, 2′,6′-difluoro-L-tyrosine]
pKa [5]: 8.1

Cc1cc(O)cc(C)c1C[C@@H](C(=O)N1Cc2ccccc2C[C@H]1C(=O)O)N(C)C [Compound 13, N,N(Me)2-Dmt-Tic-OH]
functional bioactivity GPI pA2 (μ-opioid receptor [3]; ref Salvadori et al.[15]): 5.8
functional bioactivity MVD pA2 (δ-opioid receptor [4]; ref Salvadori et al.[15]): 9.4

CC(C)[C@H](NC(=O)[C@H](CCC(=O)O)NC(=O)[C@H](Cc1ccccc1)NC(=O)[C@@H](C)NC(=O)[C@@H](N)Cc1c(F)cc(O)cc1F)C(=O)N[C@H](C(=O)NCC(N)=O)C(C)C [Compound 8, [Dft^1]Deltorphin B]
IC50 (μ-opioid receptor [2]): 3560 ± 566 nM
Ki (μ-opioid receptors): 154 ± 19 nM
IC50 (δ-opioid receptor [6]): 0.4 ± 0.08 nM
Ki (δ-opioid receptors [1]): 0.241 ± 0.03 nM
selectivity Ki^μ/Ki^δ (δ-opioid receptors [1]): 640

Cc1cc(O)cc(C)c1C[C@H](N)C(=O)N1Cc2ccccc2C[C@H]1C(=O)N[C@@H](CCCCN)C(=O)NCc1ccccc1 [Compound 10, H-Dmt-Tic-Lys-NH-Bzl] (H-[Dmt]-[Tic]-Lys-NHBn)
functional bioactivity GPI pA2 (μ-opioid receptor [3]; ref Balboni et al.[14]): 7.96
selectivity Ki^μ/Ki^δ (δ-opioid receptors [7]): 8
functional bioactivity MVD pA2 (δ-opioid receptor [4]; ref Balboni et al.[14]): 6.01
